From PMC7044277 (Nature Communications, 2020)
Values joined by “and” are separate entries in the source; they are usually repeats but may differ in a detail not shown here. Equal entries are not always repeated.

Key:
Format in all cases: cell-based
DRD2 S1975.46G = target: T1, DRD2 S1975.46G (Homo sapiens, UniProt P14416, S197G); experiment: Gαi/o-mediated cAMP inhibition (GloSensor), mutant; settings: DRD2 Ser197^5.46Gly; G-protein assay
T1 construct: expressed in transfected cells; host or cells: HEK293T (ATCC CRL-11268)

5HT2C = target: T2, 5HT2C (Homo sapiens, UniProt P28335); experiment: β-arrestin2 recruitment (Tango); settings: Fig_S10m; for β-arrestin2 recruitment response in presence of serotonin (replicate values): +10μM serotonin; for β-arrestin2 recruitment response (dose-response source data, replicate values): drug alone
T2 sequence (P28335 33-458): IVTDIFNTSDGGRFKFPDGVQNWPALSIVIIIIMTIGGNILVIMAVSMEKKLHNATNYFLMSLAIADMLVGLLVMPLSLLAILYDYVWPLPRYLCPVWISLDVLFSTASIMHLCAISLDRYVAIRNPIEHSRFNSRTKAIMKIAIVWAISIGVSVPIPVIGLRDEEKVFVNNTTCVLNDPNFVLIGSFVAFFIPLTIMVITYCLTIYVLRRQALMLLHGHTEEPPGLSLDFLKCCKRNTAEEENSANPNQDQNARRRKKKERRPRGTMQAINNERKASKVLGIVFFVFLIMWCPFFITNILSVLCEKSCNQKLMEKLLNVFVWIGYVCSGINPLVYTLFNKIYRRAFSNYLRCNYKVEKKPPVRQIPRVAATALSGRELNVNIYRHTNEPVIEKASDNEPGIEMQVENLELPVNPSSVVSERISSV

DRD5 = DRD5 (Homo sapiens, UniProt P21918); experiment: β-arrestin2 recruitment (Tango); settings: Fig_S10e, single replicates
DRD2 S1945.43G = target: T3, DRD2 S1945.43G (Homo sapiens, UniProt P14416, S194G); experiment: Gαi/o-mediated cAMP inhibition (GloSensor), mutant; settings: DRD2 Ser5.43Gly; G-protein assay
T3 construct: expressed in transfected cells; host or cells: HEK293T (ATCC CRL-11268)

DRD2 S1935.42G = target: T4, DRD2 S1935.42G (Homo sapiens, UniProt P14416, S193G); experiment: Gαi/o-mediated cAMP inhibition (GloSensor), mutant; settings: DRD2 Ser5.42Gly; G-protein assay
T4 construct: expressed in transfected cells; host or cells: HEK293T (ATCC CRL-11268)

DRD1 = DRD1 (Homo sapiens, UniProt P21728); experiment: β-arrestin2 recruitment (Tango); settings: agonist mode
Sequence of DRD1 (P21728 whole entry): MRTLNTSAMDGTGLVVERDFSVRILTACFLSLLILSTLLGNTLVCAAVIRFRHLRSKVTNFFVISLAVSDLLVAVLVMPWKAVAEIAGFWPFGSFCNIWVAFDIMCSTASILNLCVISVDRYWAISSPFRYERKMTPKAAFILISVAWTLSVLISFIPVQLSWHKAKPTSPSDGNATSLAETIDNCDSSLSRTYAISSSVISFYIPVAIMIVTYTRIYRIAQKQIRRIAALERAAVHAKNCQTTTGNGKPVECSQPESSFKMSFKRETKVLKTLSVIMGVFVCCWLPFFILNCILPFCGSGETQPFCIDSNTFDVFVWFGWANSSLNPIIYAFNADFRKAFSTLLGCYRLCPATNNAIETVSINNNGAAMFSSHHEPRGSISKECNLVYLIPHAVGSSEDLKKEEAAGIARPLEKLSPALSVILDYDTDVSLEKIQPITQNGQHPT

Sequence of DRD5 (P21918 whole entry): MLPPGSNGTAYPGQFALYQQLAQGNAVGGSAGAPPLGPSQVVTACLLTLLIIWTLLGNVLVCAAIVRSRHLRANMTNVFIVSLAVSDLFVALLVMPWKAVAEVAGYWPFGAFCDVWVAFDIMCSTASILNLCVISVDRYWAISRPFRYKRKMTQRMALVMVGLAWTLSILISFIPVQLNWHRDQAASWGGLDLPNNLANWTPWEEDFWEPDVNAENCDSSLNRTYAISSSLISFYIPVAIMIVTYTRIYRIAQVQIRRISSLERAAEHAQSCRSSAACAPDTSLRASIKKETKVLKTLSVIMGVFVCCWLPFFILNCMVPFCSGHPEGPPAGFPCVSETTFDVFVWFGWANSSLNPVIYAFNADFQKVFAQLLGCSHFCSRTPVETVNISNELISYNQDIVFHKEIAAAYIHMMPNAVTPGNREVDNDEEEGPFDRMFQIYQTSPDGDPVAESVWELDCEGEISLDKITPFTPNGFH
T3 sequence (P14416 whole entry S194G): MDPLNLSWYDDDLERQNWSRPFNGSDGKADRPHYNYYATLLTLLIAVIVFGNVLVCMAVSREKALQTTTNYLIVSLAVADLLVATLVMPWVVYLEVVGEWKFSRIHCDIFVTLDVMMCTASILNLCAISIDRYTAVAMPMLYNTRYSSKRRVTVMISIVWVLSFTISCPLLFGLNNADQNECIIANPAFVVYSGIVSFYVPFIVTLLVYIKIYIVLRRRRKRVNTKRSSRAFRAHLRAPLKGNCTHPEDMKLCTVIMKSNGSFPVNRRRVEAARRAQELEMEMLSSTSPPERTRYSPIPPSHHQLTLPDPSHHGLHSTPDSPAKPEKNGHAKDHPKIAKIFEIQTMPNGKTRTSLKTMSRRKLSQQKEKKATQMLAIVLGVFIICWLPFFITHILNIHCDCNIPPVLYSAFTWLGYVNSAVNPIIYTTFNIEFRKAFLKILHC
T4 sequence (P14416 whole entry S193G): as the sequence (P14416 whole entry S194G) above, with S193G, G194S counted along it
T1 sequence (P14416 whole entry S197G): as the sequence (P14416 whole entry S194G) above, with G194S, S197G counted along it

## CCOc1cccc2cc([C@H](C)NCC3(O)CCCCC3)oc12 [O4SE6]
DRD2 S1975.46G
  agonism after serine to glycine substitution: impaired
5HT2C; Log[Drug] -5
  β-arrestin2 recruitment response in presence of serotonin (replicate values): 45.7461 and 51.1482 and 53.4841 and 61.6893 and 54.4017 and 57.753 and 67.2866 and 83.7427 and 85.1445
  β-arrestin2 recruitment response (dose-response source data, replicate values): -3.262 and -0.5555 and 0.5642 and 1.204 and -0.4664 and 1.061 and -2.805 and 1.039 and 3.566
5HT2C; Log[Drug] -5.52
  β-arrestin2 recruitment response in presence of serotonin (replicate values): 76.8132 and 54.1781 and 71.9421 and 67.2323 and 56.1903 and 49.3738 and 64.9568 and 69.9468 and 71.0617
  β-arrestin2 recruitment response (dose-response source data, replicate values): -3.477 and -1.313 and -1.505 and -0.3021 and 0.7731 and -0.1754 and 1.049 and -1.9165 and -0.666
5HT2C; Log[Drug] -6
  β-arrestin2 recruitment response in presence of serotonin (replicate values): 57.6708 and 60.6404 and 63.9932 and 75.4508 and 75.7722 and 57.215 and 86.3739 and 65.9717 and 77.801
  β-arrestin2 recruitment response (dose-response source data, replicate values): 0.1892 and -1.167 and -2.9638 and 0.5481 and 0.639 and 4.5826 and 1.774 and -1.813 and -1.0517
5HT2C; Log[Drug] -6.52
  β-arrestin2 recruitment response in presence of serotonin (replicate values): 49.4392 and 65.2785 and 58.4136 and 69.39 and 55.9424 and 71.2915 and 76.7849 and 85.9817 and 94.9705
  β-arrestin2 recruitment response (dose-response source data, replicate values): 3.199 and -0.222 and 0.3914 and 1.323 and 0.05601 and 0.9925 and -1.994 and 1.303 and -2.122
5HT2C; Log[Drug] -7
  β-arrestin2 recruitment response in presence of serotonin (replicate values): 67.4184 and 56.2577 and 61.082 and 74.1195 and 66.0313 and 86.1338 and 77.8195 and 67.5788 and 79.0331
  β-arrestin2 recruitment response (dose-response source data, replicate values): -0.4648 and -1.599 and 4.168 and 0.2351 and 1.745 and 2.334 and 14.5501 and 3.184 and 0.1487
5HT2C; Log[Drug] -7.52
  β-arrestin2 recruitment response in presence of serotonin (replicate values): 57.9508 and 62.7389 and 68.9932 and 62.9857 and 78.9582 and 61.3863 and 70.1719 and 83.8296 and 68.1225
  β-arrestin2 recruitment response (dose-response source data, replicate values): -1.179 and -0.8967 and -0.04778 and 2.819 and 2.117 and -0.4591 and 1.974 and -0.9095 and 6.65
5HT2C; Log[Drug] -8
  β-arrestin2 recruitment response in presence of serotonin (replicate values): 70.2712 and 69.291 and 73.2872 and 71.712 and 66.0148 and 66.2452 and 79.2674 and 70.1943 and 78.2394
  β-arrestin2 recruitment response (dose-response source data, replicate values): -1.7418 and -1.636 and 0.2046 and 0.909 and -0.4958 and 0.1891 and 1.914 and -0.383 and 4.332
5HT2C; Log[Drug] -8.52
  β-arrestin2 recruitment response in presence of serotonin (replicate values): 72.9942 and 69.4566 and 60.9768 and 61.1778 and 82.5318 and 58.5381 and 71.529 and 76.0793 and 77.135
  β-arrestin2 recruitment response (dose-response source data, replicate values): -0.5405 and -0.709 and 2.709 and 0.684 and 1.936 and 3.627 and 2.573 and 6.06 and -0.7082
5HT2C; Log[Drug] -9
  β-arrestin2 recruitment response in presence of serotonin (replicate values): 65.7886 and 59.3306 and 51.1636 and 117.587 and 77.0604 and 77.3487 and 69.8244 and 87.7165 and 82.2092
  β-arrestin2 recruitment response (dose-response source data, replicate values): -2.125 and 1.403 and -1.228 and 0.9062 and -0.6032 and 0.5546 and 2.207 and 4.8202 and 4.806
5HT2C; Log[Drug] -9.52
  β-arrestin2 recruitment response in presence of serotonin (replicate values): 71.3301 and 78.8962 and 71.9628 and 82.1452 and 81.8826 and 58.8025 and 76.3992 and 91.8022 and 69.3558
  β-arrestin2 recruitment response (dose-response source data, replicate values): -0.7505 and -1.198 and -1.073 and 2.378 and 0.7896 and 2.704 and -0.6423 and 0.9477 and 0.7345
DRD5; Log[Drug] -6.52
  β-arrestin2 recruitment response, agonist mode (normalized): -0.08982
DRD5; Log[Drug] -7
  β-arrestin2 recruitment response, agonist mode (normalized): -2.193 and 0.1162 and 2.002 and 1.631 and 1.978 and 0.5459 and 0.4001 and 1.786 and 0.382
DRD5; Log[Drug] -7.52
  β-arrestin2 recruitment response, agonist mode (normalized): -0.08982 and 3.931 and 2.6523 and 1.599 and 1.463 and 1.719 and -0.1199 and 3.905 and 0.3346
DRD5; Log[Drug] -8
  β-arrestin2 recruitment response, agonist mode (normalized): -0.07925 and -1.147 and -0.7291 and 1.435 and 1.941 and 1.528 and 1.952 and 2.3308 and 0.6078
DRD5; Log[Drug] -8.52
  β-arrestin2 recruitment response, agonist mode (normalized): -0.1004 (2×) and 1.601 and 1.441 and 1.882 and 1.748 and 1.175 and 1.334 and 1.6784
DRD5; Log[Drug] -9
  β-arrestin2 recruitment response, agonist mode (normalized): 3.899 and 5.394 and 1.786 and 1.099 and 0.04193 and 2.45 and 0.1533 and 0.5646 and 0.6189
DRD5; Log[Drug] -9.52
  β-arrestin2 recruitment response, agonist mode (normalized): 2.219 and 0.0951 and 1.997 and 0.5791 and 1.124 and 2.067 and 5.639 and 0.941 and -0.06273
DRD5; Log[Drug] -10
  β-arrestin2 recruitment response, agonist mode (normalized): -0.7133 and 0.5389 and 5.595 and 1.6 and 2.167 and 2.288 and 0.7068 and 0.5423 and 3.676
DRD5; Log[Drug] -10.52
  β-arrestin2 recruitment response, agonist mode (normalized): 0.1321 and 0.1268 and 0.9299 and 1.442 and 0.235 and 1.403 and 0.9967 and 3.2411 and 1.093
DRD5; Log[Drug] -11
  β-arrestin2 recruitment response, agonist mode (normalized): 0.1268 and 0.1004 and 7.307 and 0.5831 and 0.6598 and 1.285 and 1.949 and 0.03067 and 2.569
DRD5; Log[Drug] -11.52
  β-arrestin2 recruitment response, agonist mode (normalized): 3.508 and 1.358 and 1.781 and 0.8196 and 0.1076 and 1.003 and 0.8127 and 3.51 and 1.499
DRD5; Log[Drug] -12
  β-arrestin2 recruitment response, agonist mode (normalized): -0.3064 and 5.8435 and 1.717 and 0.4312 and 3.455 and 0.3038 and 0.3541 and 3.032 and 0.3527
DRD2 S1945.43G
  agonism after serine to glycine substitution: impaired
DRD2 S1935.42G
  agonism after serine to glycine substitution: impaired
DRD1; Log[Drug] -6.52
  Fig_S10d concentration-response source data, compound alone (replicates): 1.081
DRD1; Log[Drug] -7
  Fig_S10d concentration-response source data, compound alone (replicates): 1.077 and 2.449 and 0.7206 and 0.01093 and 0.2616 and 0.5709 and 0.4663 and -0.4785 and 0.5459
DRD1; Log[Drug] -7.52
  Fig_S10d concentration-response source data, compound alone (replicates): 0.3818 and 0.7249 and 2.612 and 1.107 and 0.1296 and 1.638 and 0.2406 and 0.3904 and 0.4963
DRD1; Log[Drug] -8
  Fig_S10d concentration-response source data, compound alone (replicates): 4.337 and 0.3775 and 1.059 and 0.9723 and 0.606 and 0.3811 and 0.01404 and 0.5796 and 0.0103
DRD1; Log[Drug] -8.52
  Fig_S10d concentration-response source data, compound alone (replicates): 1.411 and 0.7206 and 3.809 and 2.0766 and 0.164 and 0.2319 and -0.01873 and 0.09082 and 0.3165
DRD1; Log[Drug] -9
  Fig_S10d concentration-response source data, compound alone (replicates): -0.3131 and 1.5871 and 3.29 and -0.05311 and -0.07654 and 0.3577 and 0.09363 and 0.0515 and 0.4204
DRD1; Log[Drug] -9.52
  Fig_S10d concentration-response source data, compound alone (replicates): 3.9849 and 1.227 and 1.561 and 0.082 and -0.1093 and 0.5131 and -0.06273 and 0.7238 and 1.497
DRD1; Log[Drug] -10
  Fig_S10d concentration-response source data, compound alone (replicates): 3.981 and 1.729 and 5.684 and -0.04842 and 0.2671 and 0.3249 and 0.426 and 0.4251 and 0.5346
DRD1; Log[Drug] -10.52
  Fig_S10d concentration-response source data, compound alone (replicates): 0.712 and 1.746 and 4.122 and 0.3608 and 0.264 and 0.2335 and 1.101 and -0.02996 and 0.2809
DRD1; Log[Drug] -11
  Fig_S10d concentration-response source data, compound alone (replicates): 2.269 and 1.742 and 3.972 and 0.1742 and 0.3296 and 0.01406 and 0.6835 and 1.257 and -0.2856
DRD1; Log[Drug] -11.52
  Fig_S10d concentration-response source data, compound alone (replicates): 0.3861 and 1.068 and 2.775 and -0.2327 and -0.01484 and 0.1414 and 0.7734 and -0.7734 and -0.2032
DRD1; Log[Drug] -12
  Fig_S10d concentration-response source data, compound alone (replicates): 1.754 and 0.5705 and -0.2917 and 0.1156 and 0.2702 and 0.1429 and -0.6489 and -0.1919 and -0.08146
